Laboratory results reported in patent US4450269A, “Mono-5-substituted-3-chloro-4H-1,2,6-thiadiazin-4-one antifungal agents” (FMC Corporation, priority 1980, dated 1984).

Experiments:
Alternaria solani = experiment: Spore germination test; assay type: cell-based; settings: AS, 48 hours
In short: (§1)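 Compound in acetone was mixed into water agar at final 40, 10, 2.5 and 1 ppm and poured into quadrant dishes. Quadrants received spore suspension, while Erysiphe polygoni and Uromyces phaseoli spores were brushed on from infected leaves. After 48 h at 24 °C, the percentage of germinated spores was converted to a germination rating.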

Botrytis cinerea = experiment: Spore germination test; assay type: cell-based; settings: BC, 48 hours
In short: as §1

| Compound | Spore Germination Rating (Alternaria solani; 1.0 ppm) | Spore Germination Rating (Alternaria solani; 2.5 ppm) | Spore Germination Rating (Alternaria solani; 10 ppm) | Spore Germination Rating (Alternaria solani; 40 ppm) | Spore Germination Rating (Botrytis cinerea; 1.0 ppm) | Spore Germination Rating (Botrytis cinerea; 2.5 ppm) | Spore Germination Rating (Botrytis cinerea; 10 ppm) | Spore Germination Rating (Botrytis cinerea; 40 ppm) |
| --- | --- | --- | --- | --- | --- | --- | --- | --- |
| 3-chloro-5-[methylaminocarbonyloxy)phenoxyl]-4H-1,2,6-thiadiazin-4-one [Compound 36] | 4 (80-100) | 4 (80-100) | 2 (40-60) | 0 (0-10) | 4 (80-100) | 4 (80-100) | 4 (80-100) | 2 (40-60) |
| O=c1c(Cl)nsnc1Oc1ccccc1 [Compound 2, 3-chloro-5-phenoxy-4H--1,2,6-thiadiazin-4-one] | 4 (80-100) | 0 (0-10) | 0 (0-10) | 0 (0-10) | 4 (80-100) | 4 (80-100) | 0 (0-10) | 0 (0-10) |
| Cc1ccc(Oc2nsnc(Cl)c2=O)cc1 [Compound 3, 3-chloro-5-(4-methylphenoxy)-4H--1,2,6-thiadiazin-4-one] | 4 (80-100) | 4 (80-100) | 0 (0-10) | 0 (0-10) | 4 (80-100) | 4 (80-100) | 0 (0-10) | 0 (0-10) |
| CC(C)(C)c1ccc(Oc2nsnc(Cl)c2=O)cc1 [Compound 4, 3-chloro-5-(4-tert-butylphnoxy)-4H--1,2,6-thiadiazin-4-one] | 4 (80-100) | 4 (80-100) | 4 (80-100) | 4 (80-100) | 4 (80-100) | 4 (80-100) | 4 (80-100) | 2 (40-60) |
| COc1ccc(Oc2nsnc(Cl)c2=O)cc1 [Compound 5, 3-chloro-5-(4-methoxyphenoxy)4H--1,2,6-thiadiazin-4-one] | 2 (40-60) | 0 (0-10) | 0 (0-10) | 0 (0-10) | 4 (80-100) | 4 (80-100) | 1 (10-40) | 0 (0-10) |
| CCCCOc1ccc(Oc2nsnc(Cl)c2=O)cc1 [Compound 6, 3-chloro-5-(4-n-butoxyphenoxy)-4H--1,2,6-thiadiazin-4-one] | 4 (80-100) | 4 (80-100) | 4 (80-100) | 4 (80-100) | 4 (80-100) | 4 (80-100) | 4 (80-100) | 4 (80-100) |
| CCOC(=O)c1ccc(Oc2nsnc(Cl)c2=O)cc1 [Compound 7, 3-chloro-5-(4-ethoxycarbonylphenoxy)-4H--1,2,6-thiadiazin-4-one] | 4 (80-100) | 4 (80-100) | 4 (80-100) | 4 (80-100) | 4 (80-100) | 3 (60-80) | 2 (40-60) | 3 (60-80) |
| CC(=O)Nc1ccc(Oc2nsnc(Cl)c2=O)cc1 [Compound 8, 5-(4-acetylaminophenoxy)-3-chloro-4H--1,2,6-thiadiazin-4-one] | 3 (60-80) | 2 (40-60) | 2 (40-60) | 0 (0-10) | 4 (80-100) | 4 (80-100) | 4 (80-100) | 4 (80-100) |
| O=c1c(Cl)nsnc1Oc1ccc([N+](=O)[O-])cc1 [Compound 9, 3-chloro-5-(4-nitrophenoxy)-4H--1,2,6-thiadiazin-4-one] | 0 (0-10) | 0 (0-10) | 0 (0-10) | 0 (0-10) | 0 (0-10) | 0 (0-10) | 0 (0-10) | 0 (0-10) |
| N#Cc1ccc(Oc2nsnc(Cl)c2=O)cc1 [Compound 10, 3-chloro-5-(4-cyanophenoxy)-4H--1,2,6-thiadiazin-4-one] | 1 (10-40) | 1 (10-40) | 1 (10-40) | 1 (10-40) | 2 (40-60) | 0 (0-10) | 0 (0-10) | 0 (0-10) |
| O=c1c(Cl)nsnc1Oc1ccc(F)cc1 [Compound 11, 3-chloro-5-(4-fluorophenoxy)-4H--1,2,6-thiadiazin-4-one] | 4 (80-100) | 0 (0-10) | 0 (0-10) | 0 (0-10) | 4 (80-100) | 1 (10-40) | 0 (0-10) | 0 (0-10) |
| O=c1c(Cl)nsnc1Oc1ccc(Cl)cc1 [Compound 12, 3-chloro-5-(4-chlorophenoxy)-4H--1,2,6-thiadiazin-4-one] | 3 (60-80) | 1 (10-40) | 1 (10-40) | 0 (0-10) | 0 (0-10) | 2 (40-60) | 0 (0-10) | 0 (0-10) |
| O=c1c(Cl)nsnc1Oc1cccc(Cl)c1 [Compound 13, 3-chloro-5-(3-chlorophenoxy)-4H--1,2,6-thiadiazin-4-one] | 2 (40-60) | 0 (0-10) | 0 (0-10) | 0 (0-10) | 4 (80-100) | 4 (80-100) | 0 (0-10) | 0 (0-10) |
| O=c1c(Cl)nsnc1Oc1ccccc1Cl [Compound 14, 3-chloro-5-(2-chlorophenoxy)-4H--1,2,6-thiadiazin-4-one] | 3 (60-80) | 2 (40-60) | 0 (0-10) | 0 (0-10) | 3 (60-80) | 0 (0-10) | 0 (0-10) | 0 (0-10) |
